# Reference: ChEMBL document CHEMBL5365497, “Developing Novel Coumarin-Containing Azoles Antifungal Agents by the Scaffold Merging Strategy for Treating Azole-Resistant Candidiasis” (J Med Chem, 2023)
# Calls of active or inactive are those of the source. The calls are words filed in the database; no cut-off is given here.
# Assays:
# [1] = Metabolic stability in mouse liver microsomes assessed as half life incubated for 5 to 60 mins by LC-MS/MS analysis; format: ADME, Microsome; settings: time 5-60 min
# Candida albicans [2] = assay: Antifungal activity against fluconazole-resistant Candida albicans CaR assessed as fungal growth inhibition by CLSI based microdilution method; format: functional
# [3] = Subacute toxicity in female KM mouse assessed as kidney damage at 100 mg/kg administered via gavage daily for 7 days; format: organism-based; settings: in vivo, po, 168 h, time 7 day
# Candida albicans [4] = assay: Antibiofilm activity against Candida albicans CPCC400616 incubated for 24 hrs by XTT reduction assay; format: functional, organism-based; settings: dose <= 128.0 µg/ml
# Pichia kudriavzevii = assay: Antifungal activity against Pichia kudriavzevii assessed as fungal growth inhibition by CLSI based microdilution method; format: functional
# [5] = Subacute toxicity in KM mouse assessed as liver damage at 100 mg/kg administered via gavage daily for 7 days; format: organism-based; settings: in vivo, po, 168 h, time 7 day
# Candida tropicalis = assay: Antifungal activity against Candida tropicalis assessed as fungal growth inhibition by CLSI based microdilution method; format: functional
# Candida albicans [6] = assay: Induction of ROS production in fluconazole-resistant Candida albicans 904 at 64 ug/ml incubated for 30 mins by fluorescence microscopy; format: functional, organism-based; settings: dose 64.0 µg/ml
# [7] = biological target: T1, Lanosterol 14-alpha demethylase (Candida albicans (strain SC5314 / ATCC MYA-2876) (Yeast), UniProt P10613); assay: Inhibition of CYP51 in Candida albicans SC5314 assessed as ergosterol level at 0.03125 ug/ml incubated for 24 hrs by GC-MS analysis (reference value: 97.58 %); set-up: scale not given: the % may be the effect or the level left; settings: at 0.03125 µg/mL
# [8] = Subacute toxicity in KM mouse assessed as abnormal behaviour at 100 mg/kg administered via gavage daily for 14 days; format: organism-based; settings: in vivo, po, 336 h, time 14 day
# [9] = Subacute toxicity in male KM mouse assessed as kidney damage at 100 mg/kg administered via gavage daily for 14 days; format: organism-based; settings: in vivo, po, 336 h, time 14 day
# Candida albicans [10] = assay: Antifungal activity against fluconazole-resistant Candida albicans 904 assessed as reduction in TEC1 expression at 16 ug/ml incubated for 12 hrs by RT-PCR analysis; format: functional, organism-based; settings: dose 16.0 µg/ml
# [11] = Stability in mouse plasma assessed as compound remaining at 1 uM measured for 180 mins by LC-MS/MS analysis; format: ADME, cell-free; settings: read-out: Stability
# Nakaseomyces glabratus = assay: Antifungal activity against Candida glabrata assessed as fungal growth inhibition by CLSI based microdilution method; format: functional
# Candida albicans [12] = assay: Antifungal activity against fluconazole-resistant Candida albicans 904 assessed as reduction in […] cell count at 16 times MIC incubated for 24 hrs by time-kill assay (reference value: 4 log10CFU/mL); format: functional
# [13] = biological target: T1, Lanosterol 14-alpha demethylase; assay: Inhibition of CYP51 in Candida albicans SC5314 assessed as increase in eburicol level at 0.03125 ug/ml incubated for 24 hrs by GC-MS analysis; settings: at 0.03125 µg/mL
# Candida albicans [14] = assay: Antifungal activity against fluconazole-resistant Candida albicans 904 assessed as fungal growth inhibition measured for 48 hrs by CLSI based microdilution method; format: functional
# Candida albicans [15] = assay: Antifungal activity against Candida albicans SC5314 assessed as destruction of cell membrane at 16 ug/ml incubated for 24 hrs by TEM analysis; format: functional, organism-based; settings: dose 16.0 µg/ml
# Candida albicans [16] = assay: Antifungal activity against Candida albicans SC5314 assessed as leakage of endogenous material within cells at 16 ug/ml incubated for 24 hrs by TEM analysis; format: functional, organism-based; settings: dose 16.0 µg/ml
# Candida albicans [17] = assay: Antifungal activity against fluconazole-resistant Candida albicans 904 assessed as decrease in CDR2 expression at 16 ug/ml measured after 16 hrs by RT-PCR analysis; format: functional, organism-based; settings: dose 16.0 µg/ml
# [18] = Cytotoxicity against human MRC5 cells assessed as cell growth inhibition by MTT assay; format: toxicity, cell-based
# Cytochrome P450 1A2 = biological target: T2, Cytochrome P450 1A2 (Homo sapiens, UniProt P05177); assay: Inhibition of CYP1A2 in human liver microsomes using phenacetin as substrate preincubated for 5 mins followed by NADPH addition by LC-MS/MS analysis; format: ADME, Microsome
# T2 sequence (P05177 whole entry): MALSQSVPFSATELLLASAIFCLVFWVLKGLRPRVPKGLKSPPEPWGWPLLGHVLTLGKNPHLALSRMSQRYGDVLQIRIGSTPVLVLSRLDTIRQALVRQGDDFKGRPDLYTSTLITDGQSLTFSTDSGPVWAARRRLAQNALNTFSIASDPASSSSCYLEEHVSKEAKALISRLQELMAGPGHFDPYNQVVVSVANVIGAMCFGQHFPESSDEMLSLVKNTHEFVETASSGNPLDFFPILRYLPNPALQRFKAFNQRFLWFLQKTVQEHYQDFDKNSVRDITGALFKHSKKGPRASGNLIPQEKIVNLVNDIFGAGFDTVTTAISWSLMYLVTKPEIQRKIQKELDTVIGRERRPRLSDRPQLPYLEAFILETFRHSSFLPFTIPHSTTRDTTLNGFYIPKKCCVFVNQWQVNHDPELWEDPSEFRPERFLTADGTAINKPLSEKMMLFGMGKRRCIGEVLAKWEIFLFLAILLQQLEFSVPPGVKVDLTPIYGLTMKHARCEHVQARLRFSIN
# [19] = Acute toxicity in fasted KM mouse assessed as body weight change at 1000 mg/kg administered via gavage measured for 7 days; format: organism-based; settings: in vivo, po, 168 h, time 7 day
# Candida albicans [20] = assay: Antifungal activity against Candida albicans CPCC400616 assessed as inhibition of yeast to hypha morphological transition at 2 ug/ml incubated for 4 hrs by inverted microscopy; format: functional, organism-based; settings: dose 2.0 µg/ml
# [21] = biological target: T1, Lanosterol 14-alpha demethylase; assay: Inhibition of CYP51 in Candida albicans SC5314 assessed as increase in lanosterol level at 0.03125 ug/ml incubated for 24 hrs by GC-MS analysis; settings: at 0.03125 µg/mL
# [22] = Subacute toxicity in female KM mouse assessed as kidney inflammation at 100 mg/kg administered via gavage daily for 7 days; format: organism-based; settings: in vivo, po, 168 h, time 7 day
# Candida albicans [23] = assay: Antifungal activity against fluconazole-resistant Candida albicans 904 assessed as decrease in MDR1 expression at 16 ug/ml measured after 16 hrs by RT-PCR analysis; format: functional, organism-based; settings: dose 16.0 µg/ml
# Cryptococcus neoformans = assay: Antifungal activity against Cryptococcus neoformans assessed as fungal growth inhibition by CLSI based microdilution method; format: functional
# Candida albicans [24] = assay: Antifungal activity against Candida albicans CPCC400616 assessed as fungal growth inhibition by CLSI based microdilution method; format: functional
# [25] = Subacute toxicity in KM mouse assessed as liver inflammation at 100 mg/kg administered via gavage daily for 7 days; format: organism-based; settings: in vivo, po, 168 h, time 7 day
# Candida albicans [26] = assay: Antifungal activity against Candida albicans CPCC400616 assessed as reduction in ALS3 expression at 2 ug/ml incubated for 12 hrs by RT-PCR analysis; format: functional, organism-based; settings: dose 2.0 µg/ml
# Candida albicans [27] = assay: Antifungal activity against Candida albicans SC5314 assessed as destruction of cell wall at 16 ug/ml incubated for 24 hrs by TEM analysis; format: functional, organism-based; settings: dose 16.0 µg/ml
# Candida albicans [28] = assay: Antifungal activity against fluconazole-resistant Candida albicans 904 assessed as fungal growth inhibition by CLSI based microdilution method; format: functional
# Cytochrome P450 2C9 = Cytochrome P450 2C9 (Homo sapiens, UniProt P11712); assay: Inhibition of CYP2C9 in human liver microsomes using diclofenac as substrate preincubated for 5 mins followed by NADPH addition by LC-MS/MS analysis; format: ADME, Microsome
# Candida albicans [29] = assay: Antifungal activity against fluconazole-resistant Candida albicans 632 assessed as fungal growth inhibition by CLSI based microdilution method; format: functional
# T1 sequence (P10613 whole entry): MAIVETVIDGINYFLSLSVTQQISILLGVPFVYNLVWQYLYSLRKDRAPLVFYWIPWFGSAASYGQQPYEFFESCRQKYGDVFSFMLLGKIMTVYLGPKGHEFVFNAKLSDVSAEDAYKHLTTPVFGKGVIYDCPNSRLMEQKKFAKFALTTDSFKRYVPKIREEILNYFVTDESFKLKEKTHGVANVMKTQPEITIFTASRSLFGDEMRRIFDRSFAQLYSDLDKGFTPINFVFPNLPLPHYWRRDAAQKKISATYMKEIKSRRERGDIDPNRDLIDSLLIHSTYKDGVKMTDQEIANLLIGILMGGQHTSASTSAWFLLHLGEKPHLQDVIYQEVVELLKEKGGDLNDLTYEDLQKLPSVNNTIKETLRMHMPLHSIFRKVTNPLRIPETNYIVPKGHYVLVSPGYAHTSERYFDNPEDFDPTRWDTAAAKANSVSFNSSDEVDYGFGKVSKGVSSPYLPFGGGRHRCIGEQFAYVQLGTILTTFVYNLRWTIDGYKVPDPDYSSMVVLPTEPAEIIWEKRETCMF
# Chain of Cytochrome P450 2C9 (P11712 whole entry): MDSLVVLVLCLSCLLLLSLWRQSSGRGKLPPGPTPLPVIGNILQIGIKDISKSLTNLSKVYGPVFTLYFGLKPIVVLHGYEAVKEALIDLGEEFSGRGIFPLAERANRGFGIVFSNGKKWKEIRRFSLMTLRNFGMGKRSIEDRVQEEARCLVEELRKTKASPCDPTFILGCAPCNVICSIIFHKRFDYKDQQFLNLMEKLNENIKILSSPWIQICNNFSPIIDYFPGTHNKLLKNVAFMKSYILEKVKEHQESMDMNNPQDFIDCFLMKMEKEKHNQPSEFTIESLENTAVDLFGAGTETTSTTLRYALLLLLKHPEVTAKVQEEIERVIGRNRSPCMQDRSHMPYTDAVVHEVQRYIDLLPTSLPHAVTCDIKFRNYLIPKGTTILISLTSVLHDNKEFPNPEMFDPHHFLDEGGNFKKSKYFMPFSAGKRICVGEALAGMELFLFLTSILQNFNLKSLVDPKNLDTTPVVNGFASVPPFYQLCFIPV
smiles,measurement,setting,value
O=c1ccc2ccc(COC(Cn3ccnc3)c3ccc(Cl)cc3Cl)cc2o1 (stereo not given),half-life,[1],15.2 min
same,MIC,Candida albicans [2],1 µg/mL
same,Activity,[3],Toxic
same,Activity,Candida albicans [4],Dose-Dependent Effect
same,MIC,Pichia kudriavzevii,2 µg/mL
same,Activity,[5],Toxic
same,MIC,Candida tropicalis,0.25 µg/mL
same,Activity,Candida albicans [6],Active
same,Activity,[7],1.54%
same,Activity,[8],Non-Toxic
same,Activity,[9],Toxic
same,Activity,Candida albicans [10],Active
same,"remaining at 3 h, 1 µM",[11],103%
same,MIC,Nakaseomyces glabratus,0.5 µg/mL
same,Activity,Candida albicans [12],2 log10CFU/ml
same,inhibition (INH),[13],Active
same,MFC,Candida albicans [14],8 µg/mL
same,Activity,Candida albicans [15],Active
same,Activity,Candida albicans [16],Active
same,Activity,Candida albicans [17],Active
same,IC50,[18],24.4 µM
same,IC50,Cytochrome P450 1A2,6.01 µM
same,Activity,[19],Non-Toxic
same,inhibition,Candida albicans [20],Active
same,inhibition (INH),[21],Active
same,Activity,[22],Non-Toxic
same,Activity,Candida albicans [23],Active
same,MIC,Cryptococcus neoformans,2 µg/mL
same,MIC,Candida albicans [24],0.06 µg/mL
same,Activity,[25],Toxic
same,Activity,Candida albicans [26],Active
same,Activity,Candida albicans [27],Active
same,MIC,Candida albicans [28],1 µg/mL
same,IC50,Cytochrome P450 2C9,0.138 µM
same,MIC,Candida albicans [29],4 µg/mL
